Assay results: US11498899B2, “Nitrone herbicides” (FMC Corporation, priority 2016, dated 2022)

Assays:
[1] = tested on: barnyardgrass (Echinochloa crus-galli); assay: Test A preemergence, visual injury rating 0-100 (0 no effect, 100 complete control); type: in vivo
[2] = tested on: foxtail, giant (giant foxtail, Setaria faberii); assay: Test A preemergence, visual injury rating 0-100; type: in vivo
[3] = tested on: ragweed (common ragweed, Ambrosia elatior); assay: Test A preemergence, visual injury rating 0-100; type: in vivo
[4] = tested on: kochia (Kochia scoparia); assay: Test A preemergence, visual injury rating 0-100; type: in vivo
[5] = tested on: pigweed (Amaranthus retroflexus); assay: Test A preemergence, visual injury rating 0-100; type: in vivo
[6] = tested on: ryegrass, Italian (Italian ryegrass, Lolium multiflorum); assay: Test A preemergence, visual injury rating 0-100; type: in vivo
[7] = tested on: rice (Oryza sativa); assay: Test B flooded paddy test, visual rating 0-100 (0 no effect, 100 complete control); conditions: Flood, 250 g ai/ha, applied to paddy water, rated after 13 to 15 days
[8] = tested on: barnyardgrass (Echinochloa crus-galli); assay: Test B flooded paddy test, visual rating 0-100; conditions: Flood, 250 g ai/ha, applied to paddy water, rated after 13 to 15 days
[9] = tested on: ducksalad (Heteranthera limosa); assay: Test B flooded paddy test, visual rating 0-100; conditions: Flood, 250 g ai/ha, applied to paddy water, rated after 13 to 15 days
[10] = tested on: foxtail, giant (giant foxtail, Setaria faberii); assay: Test A postemergence, visual injury rating 0-100; type: in vivo; conditions: 0 to 100 scale
[11] = tested on: ragweed (common ragweed, Ambrosia elatior); assay: Test A postemergence, visual injury rating 0-100; type: in vivo; conditions: 0 to 100 scale
[12] = tested on: wheat (Triticum aestivum); assay: Test A postemergence, visual injury rating 0-100; type: in vivo; conditions: 0 to 100 scale
[13] = tested on: kochia (Kochia scoparia); assay: Test A postemergence, visual injury rating 0-100; type: in vivo; conditions: 0 to 100 scale
[14] = tested on: pigweed (Amaranthus retroflexus); assay: Test A postemergence, visual injury rating 0-100; type: in vivo; conditions: 0 to 100 scale
[15] = tested on: blackgrass (Alopecurus myosuroides); assay: Test A postemergence, visual injury rating 0-100; type: in vivo; conditions: 0 to 100 scale
[16] = tested on: galium (catchweed bedstraw, Galium aparine); assay: Test A postemergence, visual injury rating 0-100; type: in vivo; conditions: 0 to 100 scale
[17] = tested on: ryegrass, Italian (Italian ryegrass, Lolium multiflorum); assay: Test A postemergence, visual injury rating 0-100; type: in vivo; conditions: 0 to 100 scale
[18] = tested on: corn (Zea mays); assay: Test A postemergence, visual injury rating 0-100; type: in vivo; conditions: 0 to 100 scale
[19] = tested on: barnyardgrass (Echinochloa crus-galli); assay: Test A postemergence, visual injury rating 0-100; type: in vivo; conditions: 0 to 100 scale

Row | SMILES | Barnyardgrass plant response rating (0 to 100 scale) ([1]; 125 g ai/ha) | Barnyardgrass plant response rating (0 to 100 scale) ([1]; 500 g ai/ha) | Foxtail, Giant plant response rating (0 to 100 scale) ([2]; 125 g ai/ha) | Foxtail, Giant plant response rating (0 to 100 scale) ([2]; 500 g ai/ha) | Ragweed plant response rating (0 to 100 scale) ([3]; 125 g ai/ha) | Ragweed plant response rating (0 to 100 scale) ([3]; 500 g ai/ha) | Kochia plant response rating (0 to 100 scale) ([4]; 125 g ai/ha) | Kochia plant response rating (0 to 100 scale) ([4]; 500 g ai/ha) | Pigweed plant response rating (0 to 100 scale) ([5]; 125 g ai/ha) | Pigweed plant response rating (0 to 100 scale) ([5]; 500 g ai/ha) | Ryegrass, Italian plant response rating (0 to 100 scale) ([6]; 125 g ai/ha) | Ryegrass, Italian plant response rating (0 to 100 scale) ([6]; 500 g ai/ha) | Rice plant response rating (0 to 100 scale) [7] | Barnyardgrass plant response rating (0 to 100 scale) [8] | Ducksalad plant response rating (0 to 100 scale) [9] | Foxtail, Giant plant response rating ([10]; 125 g ai/ha) | Foxtail, Giant plant response rating ([10]; 500 g ai/ha) | Ragweed plant response rating ([11]; 125 g ai/ha) | Ragweed plant response rating ([11]; 500 g ai/ha) | Wheat plant response rating ([12]; 125 g ai/ha) | also measured
1 | CC1=[N+]([O-])[C@H](C(=O)Nc2cccc(F)c2F)[C@@H](c2ccc(C(F)(F)F)c(F)c2)C1 (relative stereo) [Compound 61, rel-(2S,3R)—N-(2,3-Difluorophenyl)-3-[3-fluoro-4-(trifluoromethyl)phenyl]-3,4-dihydro-5-methyl-2H-pyrrole-2-carboxamide 1-oxide] | 90 | 90 | 90 | 90 | 50 | 80 | 30 | 80 | 80 | 90 | 80 | 90 | 0 | 65 | 74 | 70 | 90 | 0 | 50 | 70 | Wheat plant response rating ([12]; 500 g ai/ha): 90; Kochia plant response rating ([13]; 125 g ai/ha): 0; Kochia plant response rating ([13]; 500 g ai/ha): 30; Pigweed plant response rating ([14]; 125 g ai/ha): 30; Pigweed plant response rating ([14]; 500 g ai/ha): 50; Blackgrass plant response rating ([15]; 125 g ai/ha): 50; Blackgrass plant response rating ([15]; 500 g ai/ha): 90; Galium plant response rating ([16]; 125 g ai/ha): 50; Galium plant response rating ([16]; 500 g ai/ha): 60; Ryegrass, Italian plant response rating ([17]; 125 g ai/ha): 80; Ryegrass, Italian plant response rating ([17]; 500 g ai/ha): 80; Corn plant response rating ([18]; 125 g ai/ha): 50; Corn plant response rating ([18]; 500 g ai/ha): 90; Barnyardgrass plant response rating ([19]; 125 g ai/ha): 70; Barnyardgrass plant response rating ([19]; 500 g ai/ha): 90
2 | CC1=[N+]([O-])[C@H](C(=O)Nc2cccc(F)c2F)[C@@H](c2ccc(C(F)F)cc2)C1 (relative stereo) [Compound 93, rel-(2S,3R)-3-(4-Difluoromethyl)phenyl)-N-(2,3-difluorophenyl) 3,4-dihydro-5-methyl-2H-pyrrole-2-carboxamide 1-oxide] | 90 | 90 | 90 | 90 | 70 | 90 | 30 | 80 | 80 | 90 | 70 | 90 | 15 | 70 | 100 | 80 | 90 | 0 | 70 | 60 | Wheat plant response rating ([12]; 500 g ai/ha): 80; Kochia plant response rating ([13]; 125 g ai/ha): 0; Kochia plant response rating ([13]; 500 g ai/ha): 80; Pigweed plant response rating ([14]; 125 g ai/ha): 50; Pigweed plant response rating ([14]; 500 g ai/ha): 80; Blackgrass plant response rating ([15]; 125 g ai/ha): 60; Blackgrass plant response rating ([15]; 500 g ai/ha): 70; Galium plant response rating ([16]; 125 g ai/ha): 60; Galium plant response rating ([16]; 500 g ai/ha): 70; Ryegrass, Italian plant response rating ([17]; 125 g ai/ha): 60; Ryegrass, Italian plant response rating ([17]; 500 g ai/ha): 70; Corn plant response rating ([18]; 125 g ai/ha): 60; Corn plant response rating ([18]; 500 g ai/ha): 90; Barnyardgrass plant response rating ([19]; 125 g ai/ha): 70; Barnyardgrass plant response rating ([19]; 500 g ai/ha): 90
